Data from patent US4231928A, “Antibacterial agents” (priority 1979, dated 1980).
Converted amounts (≈) assume the structure as drawn. Where two headings read alike, the source gives them in different places.

Tests used:
Type in all cases: cell-based
[1] = system: P. vulgaris; assay: Serial twofold agar dilution (Mueller-Hinton agar), P. vulgaris; details: Proteus vulgaris, P. vulgaris A9539, Table 1, read-out: MIC
Experimental: (§1) The Minimum Inhibitory Concentrations (MIC) for sodium 6-[D-(-)-α-phenyl-α-(7-hydroxy-4-oxo-4H-pyrimido[1,2-b]pyridazin-3-ylcarboxamido)acetamido]penicillanate (BB-P598) and sulbenicillin were determined by the serial twofold agar dilution method using Steers' apparatus on Mueller-Hinton agar plates against 31 test organisms for the primary screening (Table 1) and also against 61 strains of Pseudomonas aeruginosa for the secondary evaluation (Table 2).
(§2) Minimum Inhibitory Concentrations (MIC) for sodium 6-[D-(-)-α-phenyl-α-(7-hydroxy-4-oxo-4H-pyrimido[1,2-b]pyridazin-3-ylcarboxamido)acetamido]pencillanate (BB-P598), sodium 6-[D-(-)-α-(4-hydroxyphenyl)-α-(7-hydroxy-4-oxo-4H-pyrimido[1,2-b]pyridazin-3-ylcarboxamido)acetamido]-penicillanate (BB-P642) and carbenicillin were determined by the serial twofold agar dilution method using Steers' apparatus on Mueller-Hinton agar plates against 31 tests organisms (Table 8) and also against 61 strains of Pseudomonas aeruginosa (Table 9). In terms of mean % relative activity compared with carbenicillin, compounds BB-B598 and BB-P642 were 856% and 1319% as active as carbenicillin against the 61 Pseudomonas strains of Table 9.

[2] = system: Klebsiella sp.; assay: Serial twofold agar dilution (Mueller-Hinton agar), Klebsiella sp.
Experimental: as §1, §2

[3] = system: P. mirabilis; assay: Serial twofold agar dilution (Mueller-Hinton agar), P. mirabilis; details: Proteus mirabilis, P. mirabilis A9900; Mueller-Hinton agar; Table 1; read-out: MIC
Experimental: as §1, §2

[4] = system: S. aureus; assay: Serial twofold agar dilution (Mueller-Hinton agar), S. aureus; details: Staphylococcus aureus
Experimental: as §1, §2

[5] = system: E. cloacae; assay: Serial twofold agar dilution (Mueller-Hinton agar), E. cloacae; details: Enterobacter cloacae
Experimental: as §1, §2

[6] = system: P. morganii; assay: Serial twofold agar dilution (Mueller-Hinton agar), P. morganii; details: Morganella morganii, P. morganii A9553, Table 1, read-out: MIC
Experimental: as §1, §2

[7] = system: S. enteritidis; assay: Serial twofold agar dilution (Mueller-Hinton agar), S. enteritidis; details: Salmonella enterica, S. enteritidis A9531, Table 1, read-out: MIC
Experimental: as §1, §2

[8] = system: E. coli; assay: Serial twofold agar dilution (Mueller-Hinton agar), E. coli; details: Escherichia coli
Experimental: as §1, §2

[9] = system: Pseudomonas aeruginosa; assay: Serial twofold agar dilution (Mueller-Hinton agar), P. aeruginosa; details: Pseudomonas aeruginosa
Experimental: as §1, §2

[10] = system: K. pneumoniae; assay: Serial twofold agar dilution (Mueller-Hinton agar), K. pneumoniae; details: Klebsiella pneumoniae, K. pneumoniae A9977, Table 1, read-out: MIC
Experimental: as §1, §2

[11] = system: S. marcescens; assay: Serial twofold agar dilution (Mueller-Hinton agar), S. marcescens; details: Serratia marcescens, S. marcescens A20019, Table 1
Experimental: as §1, §2

[12] = system: Pseudomonas sp.; assay: Serial twofold agar dilution (Mueller-Hinton agar), Pseudomonas sp.; details: Pseudomonas sp. A20358, Table 1, read-out: MIC
Experimental: as §1, §2

In the case of CC1(C)S[C@@H]2[C@H](NC(=O)C(c3ccccc3)S(=O)(=O)O)C(=O)N2[C@H]1C(=O)O (stereo partly shown) [Sulbenicillin, reference compound], the MIC [1] is reported as 1.6 µg/mL (≈ 3.86 µM), the MIC [2] is reported as 12.5 µg/mL (≈ 30.2 µM) and the MIC [3] is reported as 0.8 µg/mL (≈ 1.93 µM). The MIC ([4]; S. aureus BX-1633 A15097, Table 1, read-out: MIC) was 12.5 µg/mL (≈ 30.2 µM), the MIC ([4]; S. aureus BX-1633 A20701, Table 1, read-out: MIC) was 50 µg/mL (≈ 121 µM) and the MIC ([4]; S. aureus Smith A9537, Table 1, read-out: MIC) was 1.6 µg/mL (≈ 3.86 µM). The MIC ([5]; E. cloacae A9656, Table 1) was 6.3 µg/mL (≈ 15.2 µM), the MIC ([5]; E. cloacae A9657, Table 1) was 100 µg/mL (≈ 241 µM) and the MIC ([5]; E. cloacae A9659, Table 1) was 12.5 µg/mL (≈ 30.2 µM). The MIC [6] was greater than 100 µg/mL, the MIC [7] was 1.6 µg/mL (≈ 3.86 µM) and the MIC ([8]; E. coli Juhl A9435, Table 1) was 12.5 µg/mL (≈ 30.2 µM). For the same molecule, the MIC ([8]; E. coli Juhl A9844, Table 1, read-out: MIC) was 0.8 µg/mL (≈ 1.93 µM), the MIC ([8]; E. coli Juhl A15119, Table 1, read-out: MIC) was 3.1 µg/mL (≈ 7.48 µM) and the MIC ([8]; E. coli Juhl A20366, Table 1, read-out: MIC) was greater than 100 µg/mL. It also gave an MIC ([8]; E. coli Juhl A20520, Table 1, read-out: MIC) of 6.3 µg/mL (≈ 15.2 µM), an MIC ([8]; E. coli Juhl A20664, Table 1, read-out: MIC) of 3.1 µg/mL (≈ 7.48 µM) and an MIC ([8]; E. coli Juhl A20732, Table 1, read-out: MIC) greater than 100 µg/mL. For the same molecule, the MIC ([8]; E. coli Juhl A20898, Table 1, read-out: MIC) was greater than 100 µg/mL, the MIC ([8]; E. coli NIHJ, Table 1, read-out: MIC) was 0.8 µg/mL (≈ 1.93 µM) and the MIC ([9]; 61 strains of P. aeruginosa, Table 2, read-out: Geometric mean of MIC) was 31.4 µg/mL (≈ 75.8 µM). The MIC ([9]; GN315, Pa-27 GN315 A21294, Mueller-Hinton agar, Table 2, read-out: MIC) was 50 µg/mL (≈ 121 µM), the MIC ([9]; GN4925, Pa-45 GN4925, Mueller-Hinton agar, Table 2, read-out: MIC) was 50 µg/mL (≈ 121 µM) and the MIC ([9]; P. aeruginosa A9843, Mueller-Hinton agar, Table 1, read-out: MIC) was 25 µg/mL (≈ 60.3 µM). It also gave an MIC ([9]; P. aeruginosa A9930, Mueller-Hinton agar, Table 1, read-out: MIC) of 12.5 µg/mL (≈ 30.2 µM), an MIC ([9]; P. aeruginosa A15150, Mueller-Hinton agar, Table 1, read-out: MIC) of 12.5 µg/mL (≈ 30.2 µM) and an MIC ([9]; P. aeruginosa A20229, Mueller-Hinton agar, Table 1, read-out: MIC) of 12.5 µg/mL (≈ 30.2 µM). The MIC ([9]; P. aeruginosa A20717, Mueller-Hinton agar, Table 1, read-out: MIC) was 100 µg/mL (≈ 241 µM), the MIC ([9]; Pa-2 VA A9923, Mueller-Hinton agar, Table 2, read-out: MIC) was 12.5 µg/mL (≈ 30.2 µM) and the MIC ([9]; Pa-3 1449VA A9930, Mueller-Hinton agar, Table 2, read-out: MIC) was 6.3 µg/mL (≈ 15.2 µM). The MIC ([9]; Pa-4 H9 D113 A21295, Mueller-Hinton agar, Table 2, read-out: MIC) was 25 µg/mL (≈ 60.3 µM), the MIC ([9]; Pa-6 No. 5 A15194, Mueller-Hinton agar, Table 2, read-out: MIC) was greater than 100 µg/mL and the MIC ([9]; Pa-10 A20479, Mueller-Hinton agar, Table 2, read-out: MIC) was greater than 100 µg/mL. For the same molecule, the MIC ([9]; Pa-12 A20653, Mueller-Hinton agar, Table 2, read-out: MIC) was 50 µg/mL (≈ 121 µM), the MIC ([9]; Pa-15 A20717, Mueller-Hinton agar, Table 2, read-out: MIC) was 100 µg/mL (≈ 241 µM) and the MIC ([9]; Pa-16 #130 A20718, Mueller-Hinton agar, Table 2, read-out: MIC) was 6.3 µg/mL (≈ 15.2 µM). It also gave an MIC ([9]; Pa-17 H6 D114, Mueller-Hinton agar, Table 2, read-out: MIC) of 12.5 µg/mL (≈ 30.2 µM), an MIC ([9]; Pa-18 H8 D121, Mueller-Hinton agar, Table 2, read-out: MIC) of 12.5 µg/mL (≈ 30.2 µM) and an MIC ([9]; Pa-19 A20229, Mueller-Hinton agar, Table 2, read-out: MIC) of 12.5 µg/mL (≈ 30.2 µM). For the same molecule, the MIC ([9]; Pa-23 A20741, Mueller-Hinton agar, Table 2, read-out: MIC) was 50 µg/mL (≈ 121 µM), the MIC ([9]; Pa-24 A20896, Mueller-Hinton agar, Table 2, read-out: MIC) was 100 µg/mL (≈ 241 µM) and the MIC ([9]; Pa-25 A20897, Mueller-Hinton agar, Table 2, read-out: MIC) was 12.5 µg/mL (≈ 30.2 µM). It also gave an MIC ([9]; Pa-26 Ps32, Mueller-Hinton agar, Table 2, read-out: MIC) of 12.5 µg/mL (≈ 30.2 µM), an MIC ([9]; Pa-28 CPH10527/72, Mueller-Hinton agar, Table 2, read-out: MIC) of 50 µg/mL (≈ 121 µM) and an MIC ([9]; Pa-29 D122, Mueller-Hinton agar, Table 2, read-out: MIC) of 25 µg/mL (≈ 60.3 µM). It also gave an MIC ([9]; Pa-31 A20594, Mueller-Hinton agar, Table 2, read-out: MIC) of 12.5 µg/mL (≈ 30.2 µM), an MIC ([9]; Pa-33 A20598, Mueller-Hinton agar, Table 2, read-out: MIC) of 100 µg/mL (≈ 241 µM) and an MIC ([9]; Pa-35, Mueller-Hinton agar, Table 2, read-out: MIC) of 100 µg/mL (≈ 241 µM). The MIC ([9]; Pa-36, Mueller-Hinton agar, Table 2, read-out: MIC) was 1.6 µg/mL (≈ 3.86 µM), the MIC ([9]; Pa-37 A20130, Mueller-Hinton agar, Table 2, read-out: MIC) was 50 µg/mL (≈ 121 µM) and the MIC ([9]; Pa-38 A20349, Mueller-Hinton agar, Table 2, read-out: MIC) was 50 µg/mL (≈ 121 µM). It also gave an MIC ([9]; Pa-42 A21229, Mueller-Hinton agar, Table 2, read-out: MIC) greater than 100 µg/mL, an MIC ([9]; Pa-43 A21233, Mueller-Hinton agar, Table 2, read-out: MIC) of 50 µg/mL (≈ 121 µM) and an MIC ([9]; Pa-44 A21274, Mueller-Hinton agar, Table 2, read-out: MIC) of 50 µg/mL (≈ 121 µM). For the same molecule, the MIC ([9]; Pa-54 A20128, Mueller-Hinton agar, Table 2, read-out: MIC) was 50 µg/mL (≈ 121 µM), the MIC ([9]; Pa-58 A20557, Mueller-Hinton agar, Table 2, read-out: MIC) was 50 µg/mL (≈ 121 µM) and the MIC ([9]; Pa-59 A20574, Mueller-Hinton agar, Table 2, read-out: MIC) was 50 µg/mL (≈ 121 µM). The MIC ([9]; Pa-60 A20602, Mueller-Hinton agar, Table 2, read-out: MIC) was 12.5 µg/mL (≈ 30.2 µM), the MIC ([9]; Pa-61 A20726, Mueller-Hinton agar, Table 2, read-out: MIC) was 50 µg/mL (≈ 121 µM) and the MIC ([9]; Pa-62 A21213, Mueller-Hinton agar, Table 2, read-out: MIC) was greater than 100 µg/mL. It also gave an MIC ([9]; Pa-67 A21509, Mueller-Hinton agar, Table 2, read-out: MIC) of 50 µg/mL (≈ 121 µM), an MIC ([9]; Pa-68 A21510, Mueller-Hinton agar, Table 2, read-out: MIC) of 50 µg/mL (≈ 121 µM) and an MIC ([9]; Pa-69 A21587, Mueller-Hinton agar, Table 2, read-out: MIC) of 50 µg/mL (≈ 121 µM). It also gave an MIC ([9]; Pa-70 K-Ps102 (CR-102), Mueller-Hinton agar, Table 2, read-out: MIC) of 25 µg/mL (≈ 60.3 µM), an MIC [10] of 3.1 µg/mL (≈ 7.48 µM) and an MIC [11] of 6.3 µg/mL (≈ 15.2 µM). It also gave an MIC [12] of 3.1 µg/mL (≈ 7.48 µM).
